The results in this text go back to patent US20240350402A1, “TOPICAL DRUG TREATMENT TO PREVENT OR REDUCE CORNEAL SCARRING” (The Cleveland Clinic Foundation, priority 2021, published 2024).

Data set [1] deals with rabbit corneas after Descemetorhexis. As to the kind of experiment: Descemetorhexis (DMR) model: standardized slit lamp photographs, ImageJ intensity of central opacity. The data set is classed as in vivo. The note with it: one month; for intensity of opacity in a 2.5 mm circle of central cornea (ImageJ) vs DMR vehicle or DMR oral losartan groups: P<0.05. The procedure: All procedures involving animals were approved by the Institutional Animal Care and Use Committee (IACUC) at the Cleveland Clinic Foundation (Cleveland, OH, USA) and the Animal Care and Use Review Office of the Department of the Army (Fort Detrick, MD). All animals were treated in accordance with the tenets of the ARVO Statement for the Use of Animals in Ophthalmic and Vision Research. Twenty-eight 10- to 15-week-old female New Zealand White rabbits weighing 2.5 to 3.0 kg each were included in this study—four in each group.
(§1) The rabbits had general anaesthesia with 30 mg/kg ketamine hydrochloride and 5 mg/kg xylazine by IM injection. In addition, topical proparacaine hydrochloride 1% (Alcon, Ft Worth, TX, USA) was applied to each eye prior to the surgery. One cornea selected at random in each group either had sham surgery without Descemetorhexis or an 8 mm diameter central Descemet's membrane-endothelial excision. The time point of one month after surgery was selected for the study because myofibroblasts and fibrosis in the posterior cornea was maximal at this time point in a prior time course Descemetorhexis study (Sampaio et al., 2021). Descemetorhexis was performed as described in the prior study (Sampaio et al., 2021). Briefly, a wire lid speculum was placed into one eye of each rabbit and an 8 mm diameter gentian violet circle was marked on the epithelial surface for reference. A limbal entry incision was created with a 1.6 mm blade (Bausch and Lomb, Rochester, NY, USA) and 0.3 ml Healon OVD (Abbott Medical Optics Inc. Santa Ana, CA, USA) was injected into the anterior chamber. A reversed Sinskey hook (Katena, Denville, New Jersey, USA) was placed into the anterior chamber and an 8 mm diameter disc of Descemet's membrane and endothelium was excised underlying the 8 mm area previously marked on the anterior corneal surface, without a subsequent endothelial corneal transplant. No removal of Descemet's membrane or endothelium was performed in unwounded sham surgery eyes. Remaining Healon OVD was removed with a Simcoe irrigation and aspiration cannula (Bausch & Lomb, Storz, Rochester, NY, USA) and the anterior chamber was filled with balanced salt solution (BSS). A single 10-0 nylon suture was placed at the incision site to prevent leakage from the anterior chamber. One drop of ciprofloxacin (Alcon, Ft. Worth, TX, USA) was applied to the corneas immediately after surgery and four times a day until the epithelium entry wound healed at approximately 2 days.
(§2) The oral solution was prepared with 5 ml distilled water+50 ml ora-plus (suspending vehicle—Perrigo, Dublin, Ireland)+45 ml Ora-sweet (flavored syrup vehicle—Perrigo).
After one month of treatment, study eyes were dilated with two drops of 1% tropicamide (Akom Co., Lake Forest, IL) for thirty minutes. After general anaesthesia, the study eye in each rabbit had standardized slit lamp photographs at 20× magnification with a Haag Streit (Mason, OH, USA) BX900 slit lamp photography system using identical lighting position and intensity. For each study eye, the intensity of a 2.5 mm diameter central circle (not including the light reflex, examples shown in FIG. 1) was determined using ImageJ 1.53a analysis software. Statistical comparisons of the intensity of opacity was performed using the Kruskal-Wallis test followed by post-hoc Dunn's-Bonferroni test and p<0.05 was considered statistically significant

Data set [2] deals with α-smooth muscle actin (SMA) myofibroblast marker. The data set is described as follows: DMR model: IHC for SMA and keratocan, area of SMA-positive posterior fibrosis (QuPath). The class given is in vivo, rabbit. The procedure: as §1, §2
At one month after surgery and treatment, an intravenous injection of 100 mg/kg Beuthanasia (Shering-Plough, Kenilworth, NJ) was given for euthanasia with the animals under general anaesthesia. Sharp Westcott scissors (Fairfield, CT, USA) and 0.12 forceps (Storz, St. Louis, MO) were used to remove the corneo-scleral rims of the sham unwounded and DMR eyes without touching the cornea. Each cornea was set in the center of a 24×24×5 mm mold (Fisher Scientific, Pittsburgh, PA, USA) and the mold was filled in liquid OCT compound (Sakura Finetek, Torrance, CA, USA). The molds and cornea-scleral rims were quick frozen on dry ice and stored at −80° C. until sections were cut.
Each OCT block was bisected in the exact center of the cornea, and 8 μm thick transverse sections were cut from the central cornea within the previous DMR injury or unwounded sham surgery corneas with a cryostat (HM 505M; Micron GmbH, Walldorf, Germany) and three sections per slide were placed on 25 mm×75 mm×1 mm Superfrost Plus microscope slides (Fisher Scientific, Pittsburgh, PA, USA). Slides were maintained at −20° C. until immunohistochemistry.
Duplex immunohistochemistry (IHC) was performed after masking of slides by a researcher not involved in the analysis using previously described methods (de Oliveira et al., 2021) using primary antibodies (Table 2) confirmed by western blotting and IHC to recognize rabbit antigens or isotypic control antibodies (ThermoFisher Scientific, Waltham, MA), and secondary fluorescent tagged antibodies (Table 3).
The area of the SMA-positive posterior fibrotic stroma was quantitated with the original groups masked to the analyzer by standardized photography with a 10× objective on a Leica DM6B upright microscope equipped with an automated stage and Leica 7000 T camera using the LAS X software (Leica Microsystems, GmbH, Wetzlar, Germany). […]

Data set [3] relates to collagen type IV. The data set is described as follows: -9D PRK model: IHC stromal collagen type IV pixels (ImageJ). The data set is classed as in vivo, rabbit. The settings on record: losartan-treated group, one month.
Description: Twelve female 12- to 15-week-old New Zealand white rabbits weighing 2.5 to 3 kg each were included. Starting 24 hours prior to surgery and continuing 5 days after PRK, all rabbits received 60 mL children's liquid acetaminophen (Johnson & Johnson, Ft. Washington, PA, USA) per 1 L of drinking water. One eye of each rabbit was randomly selected to have −9.0 D (on myopia scale) PRK and received 2 drops of topical 1% proparacaine hydrochloride (Alcon, Fort Worth, TX, USA) prior to the surgery.
No corticosteroids were administered in either group.
Corneal Cryo-Fixation and Sectioning Rabbits were euthanized while under ketamine-xylazine general anesthesia with 100 mg/kg Beuthanasia (Shering-Plough, Kenilworth, NJ, USA) by intravenous injection followed by bilateral pneumothorax. The corneo-scleral rims were removed with sharp Westcott scissors (Fairfield, CT, USA) and 0.12 forceps (Storz, St Louis, MO, USA). […]
All images were converted to 300 DPI 900 pixel width×672 pixel height images with Photoshop 22.1.1 (Adobe, San Jose, CA). The mean pixels of stromal α-SMA or stromal collagen type IV were determined in a 900-pixel wide×235-pixel high rectangle (for either α-SMA or collagen type IV quantitation) with ImageJ in three sections for each cornea using the image panels showing only the color of interest. […]

Each structure is given as a SMILES string.

Regarding `CCCCc1nc(Cl)c(CO)n1Cc1ccc(-c2ccccc2-c2nn[nH]n2)cc1` [losartan], in data set [1] (DMR), the “intensity of opacity in the central cornea, topical vs topical and oral losartan” value is “no significant difference”. Further, the “scarring fibrosis and neovascularization compared to DMR vehicle control corneas” value in data set [1] (DMR, oral 5 mg/kg three times a day) is listed as “no difference”. For the same molecule, in data set [1] (DMR, topical 0.4 mg/ml six times per day + oral 5 mg/kg three times a day), the “changes in corneal opacity and neovascularization vs topical losartan alone” value is on record as “not different”. Also, the “scarring fibrosis (slit lamp)” value in data set [1] (DMR, topical 0.4 mg/ml six times per day) was “overall decrease”. For the same molecule, the “intensity of opacity in a 2.5 mm circle of central cornea (ImageJ) vs DMR vehicle or DMR oral losartan groups” value in data set [1] (DMR, topical losartan and oral losartan) was “significant decrease”; in data set [1] (DMR, topical losartan), “significant decrease”. In addition, in data set [1] (DMR, topical losartan), the “corneal neovascularization after Descemetorhexis” value is reported as “reduced”. Also, the “transparency of sham unwounded corneas” value in data set [1] (0.4 mg/ml topical losartan six times per day) and in data set [1] (oral 5 mg/kg losartan three times per day) was “no effect” in each case. In addition, in data set [2] (DMR, oral losartan alone, one month), the “mean area of the SMA-positive posterior fibrotic area among DMR groups” value is on record as “highest”. Besides, the “mean SMA-positive posterior fibrotic area compared to the other DMR groups” value in data set [2] (DMR, topical 0.4 mg/ml six times a day) is given as “significantly lower”. Also, the “SMA-positive fibrotic zone in the posterior cornea” value in data set [2] (DMR, topical 0.4 mg/ml six times per day, one month) is on record as “marked decrease”. Also, the “SMA-positive fibrosis in the posterior cornea” value in data set [2] (DMR, topical six times per day and oral three times per day, one month) was “decrease”. The “SMA-positive posterior corneal fibrosis in uninjured corneas” value in data set [2] (oral losartan three times a day) and in data set [2] (topical losartan six times a day) was “did not develop SMA-positive posterior corneal fibrosis” throughout. Moreover, the “collagen type IV localization (IHC)” value in data set [3] is on record as “localized primarily to the epithelial basement membrane”.
